Like-named read-outs stand apart in the source and are kept apart here.
What was measured:
Format in all cases: biochemical
[1] = molecular target: T1, human placental cytosolic COMT (Homo sapiens, UniProt P21964); conditions: for Km: read-out: KM of the substrate for O-methylation
T1 sequence (P21964 1-221 isoform P21964-2): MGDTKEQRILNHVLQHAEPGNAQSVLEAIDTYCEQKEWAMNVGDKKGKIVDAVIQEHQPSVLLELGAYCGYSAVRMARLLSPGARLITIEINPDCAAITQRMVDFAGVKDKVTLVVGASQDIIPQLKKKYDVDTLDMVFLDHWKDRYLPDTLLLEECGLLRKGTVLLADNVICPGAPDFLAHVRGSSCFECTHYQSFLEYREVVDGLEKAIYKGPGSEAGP

[2] = molecular target: T2, human liver cytosolic COMT (Homo sapiens, UniProt P21964)
T2 sequence (P21964 1-221 isoform P21964-2): T1 sequence (P21964 1-221 isoform P21964-2)

[3] = molecular target: T3, human liver and placental cytosolic COMT (Homo sapiens, UniProt P21964)
T3 sequence (P21964 1-221 isoform P21964-2): T1 sequence (P21964 1-221 isoform P21964-2)

[4] = range over liver and placental samples (summary)

SMILES: C[C@]12CC[C@@H]3c4cc(O)c(O)cc4CC[C@H]3[C@@H]1CC[C@@H]2O [2-OH-E2, 2-hydroxyestradiol, reference compound]
- VMAX of the substrate for O-methylation ([1]; HP17C (no inhibitor)): 2274 pmol/mg protein/min
- VMAX of the substrate for O-methylation ([1]; HP18C (no inhibitor)): 4815 pmol/mg protein/min
- VMAX of the substrate for O-methylation ([1]; HP20C (no inhibitor)): 1650 pmol/mg protein/min
- Km ([1]; HP17C (no inhibitor)): 1.3 µM
- Km ([1]; HP18C (no inhibitor)): 1 µM
- Km ([1]; HP20C (no inhibitor)): 0.7 µM

SMILES: C[C@]12CC[C@@H]3c4ccc(O)c(O)c4CC[C@H]3[C@@H]1CC[C@@H]2O [4-OH-E2, 4-hydroxyestradiol, reference compound]
- VMAX of the substrate for O-methylation ([2]; HL1C (no inhibitor), experiment with 1 μM chlorogenic acid): 6408 pmol/mg protein/min
- VMAX of the substrate for O-methylation ([2]; HL1C (no inhibitor), experiment with 2 μM caffeic acid): 6401 pmol/mg protein/min
- VMAX of the substrate for O-methylation ([2]; HL6C (no inhibitor)): 6310 pmol/mg protein/min
- Km ([2]; read-out: KM of the substrate for O-methylation, HL6C (no inhibitor)): 7.1 µM
- VMAX of the substrate for O-methylation ([1]; HP17C (no inhibitor)): 1827 pmol/mg protein/min
- VMAX of the substrate for O-methylation ([1]; HP18C (no inhibitor)): 1918 pmol/mg protein/min
- VMAX of the substrate for O-methylation ([1]; HP20C (no inhibitor)): 759 pmol/mg protein/min
- Km ([1]; HP17C (no inhibitor)): 3.2 µM
- Km ([1]; HP18C (no inhibitor)): 4.2 µM
- Km ([1]; HP20C (no inhibitor)): 3.5 µM

SMILES: O=C(O)/C=C/c1ccc(O)c(O)c1 [Caffeic acid, caffeic acid]
- VMAX, 4-OH-E2 as substrate, in presence of inhibitor ([1]; HP17C + 2 μM inhibitor, no inhibitor: 1827): 531 pmol/mg protein/min
- VMAX, 4-OH-E2 as substrate, in presence of inhibitor ([1]; HP17C + 0.5 inhibitor (unit of concentration not given), no inhibitor: 1827): 1572 pmol/mg protein/min
- VMAX, 2-OH-E2 as substrate, in presence of inhibitor ([1]; HP17C + 0.5 inhibitor (unit of concentration not given), no inhibitor: 2274): 2078 pmol/mg protein/min

SMILES: O=C(/C=C/c1ccc(O)c(O)c1)O[C@@H]1C[C@](O)(C(=O)O)C[C@@H](O)[C@H]1O [Chlorogenic acid, chlorogenic acid]
- VMAX, 4-OH-E2 as substrate, in presence of inhibitor ([2]; HL1C + 1 μM inhibitor, no inhibitor: 6408): 2825 pmol/mg protein/min
- VMAX, 4-OH-E2 as substrate, in presence of inhibitor ([2]; HL6C + 2 μM inhibitor, no inhibitor: 6310): 3292 pmol/mg protein/min
- change of apparent KM value, O-methylation of 4-OH-E2 ([2]; inhibitor at 1 μM): slightly increased
- decrease of apparent VMAX value, O-methylation of 4-OH-E2 ([2]; inhibitor at 1 μM): approximately 50%
- mechanism of enzyme inhibition, O-methylation of 4-OH-E2 ([2]; inhibitor at 1 μM): primarily a noncompetitive mechanism
- VMAX, 4-OH-E2 as substrate, in presence of inhibitor ([1]; HP18C + 0.25 μM inhibitor, no inhibitor: 1918): 1480 pmol/mg protein/min
- VMAX, 2-OH-E2 as substrate, in presence of inhibitor ([1]; HP18C + 0.25 μM inhibitor, no inhibitor: 4815): 3960 pmol/mg protein/min
- VMAX, 4-OH-E2 as substrate, in presence of inhibitor ([1]; HP18C + 0.5 μM inhibitor, no inhibitor: 1918): 1146 pmol/mg protein/min
- VMAX, 2-OH-E2 as substrate, in presence of inhibitor ([1]; HP18C + 0.5 μM inhibitor, no inhibitor: 4815): 3648 pmol/mg protein/min
- VMAX, 4-OH-E2 as substrate, in presence of inhibitor ([1]; HP20C + 0.5 μM inhibitor, no inhibitor: 759): 312 pmol/mg protein/min
- VMAX, 2-OH-E2 as substrate, in presence of inhibitor ([1]; HP20C + 0.5 μM inhibitor, no inhibitor: 1650): 1311 pmol/mg protein/min
- increase of KM value, 2-OH-E2 as a substrate ([1]; inhibitor at 0.25 μM): approximately 2 fold
- increase of KM value, 4-OH-E2 as a substrate ([1]; inhibitor at 0.25 μM): approximately 1.2 fold
- increase of KM value, 2-OH-E2 as a substrate ([1]; inhibitor at 0.5 μM): ~4 fold
- increase of KM value, 4-OH-E2 as a substrate ([1]; inhibitor at 0.5 μM): approximately 2 fold
- decrease of VMAX value, 2-OH-E2 as a substrate ([1]; inhibitor at 0.25 and 0.5 μM): approximately 20%
- decrease of VMAX value, 4-OH-E2 as a substrate ([1]; inhibitor at 0.25 and 0.5 μM): approximately 50%
- mechanism of enzyme inhibition, O-methylation of 2-OH-E2 and 4-OH-E2 ([1]; section on human placental cytosolic COMT (sentence prints human liver COMT)): mixed (competitive plus noncompetitive)
- mechanism of inhibition, O-methylation of 2-OH-E2 and 4-OH-E2 ([3]; human liver and placental COMT): mixed (competitive plus noncompetitive)
- higher inhibition potency for the O-methylation of 4-OH-E2 than for the O-methylation of 2-OH-E2 ([3]; human liver or placental cytosolic COMT): 1.5 to 7 fold
- IC50 values for inhibiting the methylation of 2-OH-E2 [3, 4]: 800 to 1400 nM
- IC50 values for inhibiting the methylation of 4-OH-E2 [3, 4]: 200 to 800 nM
